# Test results: patent US10653658B2, “Biofilm inhibiting compositions enhancing weight gain in livestock” (Akeso Biomedical, Inc., priority 2015, dated 2020)
# Marks after values point to notes of the source that are not given here.
# Experiment: Growth performance of broilers given FeQ or FeTyr in water/feed, dirty litter Campylobacter challenge at day 20 (Example 1)
# Type: in vivo, Ross 308 male broilers
# Settings: for AFD (average feed intake) Day 0-20 / AWG (average weight gain) Day 0-20 / MFCR (mortality adjusted) Day 0-20: before challenge
# Method: A study was performed to evaluate growth promotion and reduction of Campylobacter carriage using FeQ and FeTyr in Ross 308 male broilers with 7 treatment groups. Each treatment group comprised four replicates of 10 birds per pen (40 birds/treatment group and 4 pens of 10 birds/treatment group), with 2 control groups and 5 test groups. All the test groups and one of the control groups were exposed at day 20 of the trial to dirty litter, which tested positive for Campylobacter. This method was used to provide a more natural method to Campylobacter challenge the birds. Thus there was a positive control where one treatment group was challenged with Campylobacter and one negative control group where the birds were not challenged, and five treatment groups that were all challenged with Campylobacter. The total number of birds used in the 7 treatment groups was 280. Treatment group 1 was a negative control where birds just received the commercial feed, and were not challenged with dirty litter containing Campylobacter. Treatment group 2 was the positive control where the birds received the commercial feed, and were challenged with dirty litter containing Campylobacter at day 20. Treatment group 3 received 0.22 g/L of FeQ in their drinking water and 0.22 g/Kg FeQ in their feed during the entire trial, and was challenged with dirty litter containing Campylobacter at day 20. Treatment group 5 received 0.22 g/L of FeQ in their drinking water during the entire trial, and was challenged with dirty litter containing Campylobacter at day 20. Treatment group 6 received 0.22 g/kg FeQ in their feed during the entire trial, and was challenged with dirty litter containing Campylobacter at day 20. Treatment group 7 received 0.022 g/L FeQ in their drinking water during the entire trial, and was challenged with dirty litter containing Campylobacter at day 20. Treatment group 8 received 0.02 g/L FeTyr in their drinking water during the entire trial, and was challenged with dirty litter containing Campylobacter at day 20. The FeTyr was pre-dissolved in DMSO, and diluted to provide a solution of 0.02 g/L of FeTyr in water. (An additional treatment group 4 was terminated due to solubility issues.)
# The birds were fed with a commercial three-phase feeding program using starter, grower and finisher feeds with formulations shown in Table 2. All diets had coccidiostat (MAXIBAN® at 0.0625% in starter and […] and MONTEBAN® at 0.06% in finisher phase). Xylanase (RONOZYME® WX at 200 g per ton) and phytase (RONOZYME® P at 150 grams per ton) were added to all diets.
# The feeding program is show in Table 3. The birds were reared in floor pens to day 42, and fed starter, grower and finisher feed at day 0 to 11, 11 to 24, and 24 to 42 days, respectively. All birds were weighed individually and feed weigh backs recorded per pen at day 0, 11, 21, 24 and 42 days.
# Prior to challenging the chickens with dirty litter containing Campylobacter at day 20, each pen was tested for Campylobacter using cloacal swabs. All pens tested negative for Campylobacter prior to the challenge. At day 20, litter, which was naturally Campylobacter-contaminated, was tested to confirm the presence of Campylobacter, and then added (approximately 2 kg/pen) to the litter in all pens except in pens for treatment group 1 (the negative control). At day 28, the pen litter was sampled to confirm the presence or absence of Campylobacter. At day 41 and 42, caecal samples were taken from 3 birds per pen (12 birds per treatment group) and tested for Campylobacter enumeration. At day 42, digesta, fecal samples, and caecal content was taken from all birds, and pooled per pen. Two birds per pen were also taken from treatment groups 1-3, euthanized, and blood samples taken. […]
# [1] = FeQ groups 3, 5, 6, 7 pooled, absence of Campylobacter challenge
# [2] = treatment 3: 0.22 g/L FeQ in water + 0.22 g/kg FeQ in feed
# [3] = treatment 5: 0.22 g/L FeQ in water
# [4] = treatment 6: 0.22 g/kg FeQ in feed
# [5] = treatment 7: 0.022 g/L FeQ in water
smiles,measurement,setting,value
"O=C([O-])C1(O)CC(O)C(O)C(O)C1.O=C([O-])C1(O)CC(O)C(O)C(O)C1.O=C([O-])C1(O)CC(O)C(O)C(O)C1.[Fe+3] (centres unmarked) [FeQ, Ferric Quinate]",ABW (average body weight) Day 11,[1],0.339 kg
same,ABW (average body weight) Day 20,[1],0.963 kg
same,AFD (average feed intake) 0-20 days,[1],1.191 kg
same,AWG (average weight gain) 0-20 days,[1],0.923 kg
same,"effect on growth performance in the absence of Campylobacter challenge, first 20 days",compared with control groups 1 and 2,promotes growth of chicken
same,ABW (average body weight) Day 0,[2],0.040 kg
same,ABW (average body weight) Day 11,[2],0.346 kg
same,ABW (average body weight) Day 20,[2],0.972 kg
same,ABW (average body weight) Day 25,[2],1.424 kg
same,ABW (average body weight) Day 42,[2],3.342 kg
same,AFD (average feed intake) Day 0-11,[2],0.356 kg
same,AFD (average feed intake) Day 0-42,[2],5.267 kg
same,AFD (average feed intake) Day 11-20,[2],0.857 kg
same,AFD (average feed intake) Day 11-25,[2],1.524 kg
same,AFD (average feed intake) Day 20-25,[2],0.667 kg
same,AFD (average feed intake) Day 20-42,[2],4.054 kg
same,AFD (average feed intake) Day 25-42,[2],3.387 kg
same,AWG (average weight gain) Day 0-11,[2],0.306 kg
same,AWG (average weight gain) Day 0-42,[2],3.302^ab kg
same,AWG (average weight gain) Day 11-20,[2],0.625 kg
same,AWG (average weight gain) Day 11-25,[2],1.078 kg
same,AWG (average weight gain) Day 20-25,[2],0.453 kg
same,AWG (average weight gain) Day 20-42,[2],2.370^ab kg
same,AWG (average weight gain) Day 25-42,[2],1.918^ab kg
same,EPEF (European production and efficiency factor) Day 20,[2],350.4
same,EPEF (European production and efficiency factor) Day 42,[2],262.9
same,MFCR (mortality adjusted FCR) Day 11-20,[2],1.375
same,MFCR (mortality adjusted FCR) Day 11-25,[2],1.417
same,MFCR (mortality adjusted FCR) Day 20-25,[2],1.477
same,MFCR (mortality adjusted FCR) Day 25-42,[2],1.773
same,MFCR (mortality adjusted feed conversion ratio) Day 0-11,[2],1.181^ab
same,MFCR (mortality adjusted) Day 0-42,[2],1.595
same,MFCR (mortality adjusted) Day 20-42,[2],1.713
same,AFD (average feed intake) Day 0-20,[2],1.213 kg
same,AWG (average weight gain) Day 0-20,[2],0.931 kg
same,MFCR (mortality adjusted) Day 0-20,[2],1.310
same,ABW (average body weight) Day 0,[3],0.040 kg
same,ABW (average body weight) Day 11,[3],0.334 kg
same,ABW (average body weight) Day 20,[3],0.943 kg
same,ABW (average body weight) Day 25,[3],1.384 kg
same,ABW (average body weight) Day 42,[3],3.407 kg
same,AFD (average feed intake) Day 0-11,[3],0.352 kg
same,AFD (average feed intake) Day 0-42,[3],5.188 kg
same,AFD (average feed intake) Day 11-20,[3],0.821 kg
same,AFD (average feed intake) Day 11-25,[3],1.479 kg
same,AFD (average feed intake) Day 20-25,[3],0.658 kg
same,AFD (average feed intake) Day 20-42,[3],4.015 kg
same,AFD (average feed intake) Day 25-42,[3],3.357 kg
same,AWG (average weight gain) Day 0-11,[3],0.294 kg
same,AWG (average weight gain) Day 0-42,[3],3.367^ab kg
same,AWG (average weight gain) Day 11-20,[3],0.609 kg
same,AWG (average weight gain) Day 11-25,[3],1.050 kg
same,AWG (average weight gain) Day 20-25,[3],0.441 kg
same,AWG (average weight gain) Day 20-42,[3],2.464^ab kg
same,AWG (average weight gain) Day 25-42,[3],2.023^b kg
same,EPEF (European production and efficiency factor) Day 20,[3],352.0
same,EPEF (European production and efficiency factor) Day 42,[3],278.3
same,MFCR (mortality adjusted FCR) Day 11-20,[3],1.348
same,MFCR (mortality adjusted FCR) Day 11-25,[3],1.409
same,MFCR (mortality adjusted FCR) Day 20-25,[3],1.495
same,MFCR (mortality adjusted FCR) Day 25-42,[3],1.706
same,MFCR (mortality adjusted feed conversion ratio) Day 0-11,[3],1.210^ab
same,MFCR (mortality adjusted) Day 0-42,[3],1.560
same,MFCR (mortality adjusted) Day 20-42,[3],1.665
same,AFD (average feed intake) Day 0-20,[3],1.173 kg
same,AWG (average weight gain) Day 0-20,[3],0.903 kg
same,MFCR (mortality adjusted) Day 0-20,[3],1.303
same,ABW (average body weight) Day 0,[4],0.041 kg
same,ABW (average body weight) Day 11,[4],0.351 kg
same,ABW (average body weight) Day 20,[4],0.991 kg
same,ABW (average body weight) Day 25,[4],1.426 kg
same,ABW (average body weight) Day 42,[4],3.464 kg
same,AFD (average feed intake) Day 0-11,[4],0.360 kg
same,AFD (average feed intake) Day 0-42,[4],5.201 kg
same,AFD (average feed intake) Day 11-20,[4],0.841 kg
same,AFD (average feed intake) Day 11-25,[4],1.526 kg
same,AFD (average feed intake) Day 20-25,[4],0.685 kg
same,AFD (average feed intake) Day 20-42,[4],4.001 kg
same,AFD (average feed intake) Day 25-42,[4],3.315 kg
same,AWG (average weight gain) Day 0-11,[4],0.310 kg
same,AWG (average weight gain) Day 0-42,[4],3.423^b kg
same,AWG (average weight gain) Day 11-20,[4],0.640 kg
same,AWG (average weight gain) Day 11-25,[4],1.075 kg
same,AWG (average weight gain) Day 20-25,[4],0.434 kg
same,AWG (average weight gain) Day 20-42,[4],2.473^ab kg
same,AWG (average weight gain) Day 25-42,[4],2.039^b kg
same,EPEF (European production and efficiency factor) Day 20,[4],364.8
same,EPEF (European production and efficiency factor) Day 42,[4],265.0
same,MFCR (mortality adjusted FCR) Day 11-20,[4],1.343
same,MFCR (mortality adjusted FCR) Day 11-25,[4],1.440
same,MFCR (mortality adjusted FCR) Day 20-25,[4],1.599
same,MFCR (mortality adjusted FCR) Day 25-42,[4],1.704
same,MFCR (mortality adjusted feed conversion ratio) Day 0-11,[4],1.168^a
same,MFCR (mortality adjusted) Day 0-42,[4],1.563
same,MFCR (mortality adjusted) Day 20-42,[4],1.678
same,AFD (average feed intake) Day 0-20,[4],1.201 kg
same,AWG (average weight gain) Day 0-20,[4],0.951 kg
same,MFCR (mortality adjusted) Day 0-20,[4],1.284
same,ABW (average body weight) Day 0,[5],0.040 kg
same,ABW (average body weight) Day 11,[5],0.325 kg
same,ABW (average body weight) Day 20,[5],0.947 kg
same,ABW (average body weight) Day 25,[5],1.388 kg
same,ABW (average body weight) Day 42,[5],3.304 kg
same,AFD (average feed intake) Day 0-11,[5],0.348 kg
same,AFD (average feed intake) Day 0-42,[5],5.201 kg
same,AFD (average feed intake) Day 11-20,[5],0.829 kg
same,AFD (average feed intake) Day 11-25,[5],1.490 kg
same,AFD (average feed intake) Day 20-25,[5],0.661 kg
same,AFD (average feed intake) Day 20-42,[5],4.023 kg
same,AFD (average feed intake) Day 25-42,[5],3.362 kg
same,AWG (average weight gain) Day 0-11,[5],0.285 kg
same,AWG (average weight gain) Day 0-42,[5],3.265^ab kg
same,AWG (average weight gain) Day 11-20,[5],0.622 kg
same,AWG (average weight gain) Day 11-25,[5],1.064 kg
same,AWG (average weight gain) Day 20-25,[5],0.441 kg
same,AWG (average weight gain) Day 20-42,[5],2.357^ab kg
same,AWG (average weight gain) Day 25-42,[5],1.916^ab kg
same,EPEF (European production and efficiency factor) Day 20,[5],354.5
same,EPEF (European production and efficiency factor) Day 42,[5],276.2
same,MFCR (mortality adjusted FCR) Day 11-20,[5],1.333
same,MFCR (mortality adjusted FCR) Day 11-25,[5],1.406
same,MFCR (mortality adjusted FCR) Day 20-25,[5],1.513
same,MFCR (mortality adjusted FCR) Day 25-42,[5],1.793
same,MFCR (mortality adjusted feed conversion ratio) Day 0-11,[5],1.236^b
same,MFCR (mortality adjusted) Day 0-42,[5],1.612
same,MFCR (mortality adjusted) Day 20-42,[5],1.739
same,AFD (average feed intake) Day 0-20,[5],1.178 kg
same,AWG (average weight gain) Day 0-20,[5],0.907 kg
same,MFCR (mortality adjusted) Day 0-20,[5],1.302
same,effect on MFCR at day 42 compared with positive control (FIG. 2),"treatment groups 3, 5, 6, 7 and 8, challenged with dirty litter",positive effect on MFCR
same,effect on growth: average body weight at day 42 compared with positive control (FIG. 1),"treatment groups 3, 5, 6, 7 and 8, challenged with dirty litter containing Campylobacter",positive effect on growth
